One test relates to cultured blood clots. As to the kind of experiment: sLox-1 shedding into cultured clot serum (ELISA). The format is cell-based, human. Conditions: cultured clot 4 h, 37° C., vs cultured clot without additive, 100 ng/mL LPS, 10 mM bGP. The text has this: This is the enabling data for beta glycerol phosphate and PMA treated blood clots.
Parallel analysis of IL-8/CXCL8 in the cultured clot serum can be used to document test article cytocompatibility. The absence of IL6 in donor fresh blood can be used to verify there is no sepsis or bacteremia, and lack of IL-6 induction in the cultured clot serum can be used to identify sterile inflammation and test article purity (lack of endotoxin response).
In an embodiment, cultured clots were spiked with LPS by injecting an LPS solution into the vacutainer tube immediately after blood collection and before clot formation. These LPS/cultured clots shed even more sLox-1 into the serum than the paired cultured clots without LPS, in line with the known effect of LPS and downstream mediators (TNF, IL1A) in stimulating Lox-1 expression. (FIG. 2).
In an embodiment, a precision medicine tool is developed that detects Lox-1 induction in an ex vivo thrombus and shedding of soluble Lox-1 (sLox-1) into the serum. The tool consists of a red vacutainer tube with as little as 0.5 mL and more ideally 3 or 4 mL of peripheral whole venous blood, that is placed for 4 hours at 37° C.
The optimized cultured clot system involves placing a red cap vacutainer tube with anionic clot-activator at 37° C. for 4 hours after which serum may be collected. Serum contains a mixture of barrier-reducing and barrier-enhancing factors.

The subject of the next test is sLox-1 shedding by cells. Conditions: previous studies; cited from earlier work.
For test [1], the system named is cultured clots. As to the kind of experiment: CXCL8/IL-8 and IL-6 protein in cultured clot serum. The test is classed as cell-based, human. Conditions: cultured clot 4 h, 37° C.; for CXCL8/IL-8 protein in cultured clot serum: +100 ng/mL LPS or +10 mM bGP. The procedure: [Key: FB: fresh blood plasma, cC: cultured clot (4 h, 37° C.), Norm: cultured clot under Normoxia, Hyp: cultured clot under Hypoxia, Hep: heparin blood culture (4 h, 37° C.), +LPS: +100 ng/mL lipopolysaccharide, +bGP: +10 mM disodium beta glycerol phosphate].

The subject of test [2] is cultured clots. As to the kind of experiment: RT-PCR of transcript levels in cultured clots. The format is cell-based, human. Conditions: cultured clot 4 h, 37° C. The procedure:
Lanes: 1. Fresh whole blood (PAXgene); 2. Fresh blood clot (45 min, RT); 3. Cultured clot (4 h, 37° C.); 4. LPS/cultured clot (4 h, 37° C.); 5. Beta-glycerol phosphate cultured clot (4 h, 37° C.); 6. Cultured heparin blood (4 h, 37° C.). OLR1 was induced in all cultured clots (4) and in all cultured clots+LPS ([…]).

Test [3] has as its system cultured clots. Briefly: Neutrophil elastase (NE) release to cultured clot serum. The test is classed as cell-based, human. Conditions: cultured clot 4 h 37° C.; +10 mM bGP. The procedure:
FB=fresh blood; FC=fresh clot ([…] RT incubation); cC=cultured clot (4 h 37° C.; +LPS=cC+100 ng/mL LPS; +bGP=cC+10 mM bGP. This is enabling data for using the cultured clot system to screen drugs for the ability to inhibit neutrophil degranulation in an assay that uses minimally modified whole blood, by measuring the level of NE and/or PR3, or other granule factors (myeloperoxidase, cathepsin G, elastase, metalloproteinases, defensins) in treated versus untreated cultured clot serum.

The subject of a further test is endothelial cells. Conditions: other studies; cited from earlier work.
In test [4] the test system is heparinized anticoagulated blood. As to the kind of experiment: Reversal of heparin anticoagulation to form viable cultured blood clots. The format is cell-based. Conditions: 4 hours at 37° C.; chitosan 99% DDA, 3 kDa or 10 kDa. An excerpt:
The degree of deacetylation is preferably from 90% to 100% and the molecular weight is preferably at least 3,000 Da and at most 500,000 Da.

Another test deals with HPAEC. Briefly: TER assay of endothelial barrier function. The format is cell-based, human. The text has this:
In FIG. 28 TER assay with HPAEC treated with 0.2 U/mL thrombin, 10% fresh serum, 10% cultured clot serum or 10% LPS/cultured clot serum produced by peripheral blood collected from 4 healthy donors (N=2 tests per condition for donors 1 and 2 and N=1 test per condition for combined samples from donors 3 and 4). Mean ±standard deviation (N=4 thrombin and N=5 for all other conditions).

The test system of test [5] is HEK293 human Lox-1 overexpression system. As to the kind of experiment: sLox-1 production in HEK293 human Lox-1 overexpression system. The test is classed as cell-based. An excerpt: Thrombin, for example, had no effect on sLox-1 production in our HEK293 human Lox-1 overexpression system. The enzymes responsible for sLox-1 shedding are under intense debate and not yet identified in neutrophils. Close scrutiny of PR3 leads hypothesize it is a novel neutrophil-specific sheddase of sLox-1. PR3 is harbored in azurophilic and secretory granules of neutrophils. Upon release, PR3 associates with the neutrophil cell surface via CD177 in cholesterol-rich lipid rafts where Lox-1 is located. PR3 activity is believed to preserve endothelial barrier function during neutrophil extravasation. […] One study used trypsin digestion during sample preparation. The proposed sLox-1 cleavage motif is missing an aliphatic P1′ residue used by ADAM10 and ADAM17 to recognize a substrate. By contrast, the human Lox-1 cleavage region (QISA87R88QQA) has a very striking match with the PR3 cleavage site in IL-8 (AVLPRSA↓RKEL). […] (Table 5). The published cleavage sites for sLox-1 in bovine and human produce a non-conserved sLox-1 N-terminus, with NH2-Glutamine for human and NH2-Serine for bovine (Table 5). […] Potentially harmful bystander elastase activity of PR3 [73] could be suppressed by high levels of alpha-1 antitrypsin or ceruloplasmin that we detected by LC-MS in plasma and serum.

In the case of `CCCCCCCCCCCCCC(=O)O[C@@H]1[C@@H](C)[C@@]2(O)[C@@H](C=C(CO)C[C@]3(O)C(=O)C(C)=C[C@@H]23)[C@@H]2C(C)(C)[C@]12OC(C)=O` [PMA, phorbol myristate acetate], in the test on cultured blood clots, the “sLox-1 shedding into cultured clot serum” value is given as “enhanced”.
As for `O=S(=O)(F)Cc1ccccc1` [PMSF, phenylmethylsulfonyl fluoride], the “sLox-1 shedding by exposed cells” value in the test with sLox-1 shedding by cells is listed as “reduced sLox-1 shedding”.
Regarding `CC(C)C[C@H](CC(=O)NO)C(=O)N[C@@H](Cc1ccc2ccccc2c1)C(=O)N[C@@H](C)C(=O)NCCN` [TAPI-1], the “sLox-1 shedding by exposed cells” value with sLox-1 shedding by cells is “reduced sLox-1 shedding”.
For the molecule `O=P([O-])([O-])OC(CO)CO.[Na+].[Na+]` [bGP, disodium beta glycerol phosphate], in the test with cultured clots [1], the “CXCL8/IL-8 protein in cultured clot serum” value is “does not alter”. The “sLox-1 shedding into cultured clot serum” value with cultured blood clots was “suppressed”. The “sLox-1 shedding into cultured clot serum” value in the test with cultured blood clots (listed as phosphatase inhibitor) is recorded as “inhibited”. For the same molecule, in the test on cultured clots [2] (10 mM), the “CXCL8/IL-8 expression (RT-PCR)” value was “without suppressing” and the “TNF expression (RT-PCR)” value is listed as “specifically suppressed”. Besides, the “neutrophil elastase (NE) release to serum” value in the test with cultured clots [3] is given as “inhibited”.
On to `CC(C)c1nc(N(C)S(C)(=O)=O)nc(-c2ccc(F)cc2)c1/C=C/[C@@H](O)C[C@@H](O)CC(=O)O` [rosuvastatin], for which the “Lox-1 expression in endothelial cells” value with endothelial cells is listed as “inhibited Lox-1 expression”.
Regarding lipopolysaccharide [LPS], the “IL-6 protein in cultured clot serum” value in the test with cultured clots [1] (+100 ng/mL LPS) is “elevated”. Besides, the “CXCL8/IL-8 protein in cultured clot serum” value in the test on cultured clots [1] was “elevated”. Besides, the “sLox-1 shedding into cultured clot serum” value in the test with cultured blood clots was “increased”. In addition, in the test on cultured clots [2], the “IL6 expression (RT-PCR)” value is “induced”.
For protamine, the “reversal of heparin anticoagulation, forming viable cultured blood clots” value in test [4] is “reverse heparin anticoagulation”.
Regarding thrombin, in the test with HPAEC (0.6 hours post-stimulation, vs control, fresh serum), the “effect on endothelial barrier function” value was “transient loss of barrier function”. For the same molecule, the “mean normalized resistance at 36 min” value with HPAEC (HPAEC, 10% serum or 0.2 U/mL thrombin, 36 min, mean ± SD) is 0.48±0.03. The sLox-1 production result in [5] is given as “no effect”.
